Patent US4320051A, “Analgesic tripeptide amides” (American Home Products Corporation, priority 1980, dated 1982)
Values joined by “and” are separate entries in the source; they are usually repeats but may differ in a detail not shown here. Identical values can stand only once. Square brackets hold non-standard residues; d marks the D form. Ends that are not written are not given here.

Legend:
[1] = system: phenylbenzoquinone-induced writhing; experiment: phenylbenzoquinone-induced writhing test; format: in vivo; settings: subcutaneous, mice
Protocol: Exp. Biol. Med., 95, 729-731 (1957), by establishing three groups of ten mice (Carworth farms) per group (18-27 g. body weight). The animals receive the compound being tested (Examples 9 and 15) subsubcutaneously. Five or 20 minutes later each animal received 0.25 milliliters of the writhing agonist (i.e. 0.02% solution of PBQ). The animals receiving the writhing agonist five minutes after the test compound are observed for a period of ten minutes beginning five minutes after the injection. The animals receiving the writhing agonist 20 minutes after the test compound are observed for ten minutes beginning five minutes after the injection. A compound is an analgesic if it inhibits writhing induced by phenyl benzoquinone.

[2] = system: opiate receptor (3H-naloxone binding); experiment: 3H-naloxone displacement (procedure of Chang et al.); parameters: 3H-naloxone displacement ED50: unit not given here
Excerpt: Enkephalin, a natural opiate receptor agonist in the brain, has been identified [see Hughes et al., Nature, 258,577 (1975)] as a mixture of two pentapeptides: H-Tyr-Gly-Gly-Phe-Met-OH (methionine-enkephalin) and H-Tyr-Gly-Gly-Phe-Leu-OH (leucine-enkephalin). […] It has been reported that methionine-enkephalin and leucine-enkephalin, when administered by injection in the brain ventricle in rats, induce a profound analgesia that is fully reversible by naloxone. [See Beluzzi et al., Nature, 260, 625 (1976)].

[3] = intravenous administration, relative to morphine; cited from earlier work

| Compound | ED50 mg/kg. (confidence limits) ([1]; Time 15 minutes) | ED50 mg/kg. (confidence limits) ([1]; Time 30 minutes) | 3H-naloxone displacement ED50 [2] | relative displacement potency ([2]; 3H-naloxone displacement, morphine=1) | times more potent than morphine [3] [times] |
| --- | --- | --- | --- | --- | --- |
| C[C@@H](NC(=O)[C@@H](N)Cc1ccc(O)cc1)C(=O)NCC(=O)NC(Cc1ccccc1)CN1CCN(C)CC1 (stereo partly drawn) [Example 9, L-Tyrosyl-D-alanyl-N-[1-[(4-methyl-1-piperazinyl)methyl]-2-phenyl-ethyl]glycinamide] | 1.05 (0.62-1.79) mg/kg | 4.60 (3.1-6.9) mg/kg and 6.20 (4.4-8.7) mg/kg | 1.36×10^-7 | 1.3 | – |
| Y[dM]GFP-NH2 | – | – | – | – | 5.5 |
